Source: US11654138B2, “Therapeutic agents for treating and preventing autoimmune diseases and cancer and a screening method” (KING FAISAL UNIVERSITY, priority 2019, dated 2023)

Legend:
[1] = test system: differentiated Th17 cells; assay: Th17 differentiation of naïve CD4+CD62L+ T cells; format: cell-based, mice; details: 40 μM, 72 h
Experimental: (§1) The peritoneal macrophages were stimulated in vitro with 0.5 μg/mL lipopolysaccharides (LPS) (Sigma-Aldrich) for 24 h. The CD4^+ CD62L^+ T cells were isolated and purified from spleen using the MACS isolation kit (Miltenyi). The T cells were cultured in the presence of anti-CD3/CD28 dynabeads (Invitrogen), recombinant mouse IL-6 (30 ng/mL; R&D Systems), recombinant transforming growth factor-β (TGF-β) (4 ng/mL; R&D Systems), anti-interferon-γ (IFN-γ) and anti-IL-4 (10 μg/mL; Biolegend) for 72 h to generate Th17 cells.
The mRNAs and cytokines were quantified as follows. A first strand of cDNA was synthesized from total RNA by using the TaqMan reverse transcription kit. The cDNA was amplified in the real-time PCR system ViiA7 using TaqMan gene expression assays of OX40 (Mm01261022_m1), Stat3 (Mm01219775_m1) and the endogenous control Gapdh (Mm99999915_g1). Kits, probes and reagents were from Applied Biosystems. The relative expression of mRNAs was calculated by ΔΔCt method. For cytokines quantification in serum and cell culture supernatants, ELISA kits of IL-17a, IL-6, TNF-α (Invitrogen) were used following the manufacturer's instructions.
Flow cytometry analysis was conducted using CD4^+ T cells cultured under Th17 cell-inducing conditions or CD4^+ T cells derived from CNS, which were fixed and stained with Per-CP-Cy5.5-conjugated anti-CD4 antibodies and PE-conjugated anti-OX40 antibodies (Biolegend). Analysis was carried out using Flowsight (Amnis).
The anti-inflammatory activity of the Arid5a inhibitor POE was tested in vitro by measuring secretion of pro-inflammatory cytokines by macrophages and differentiated Th17 cells. Briefly, peritoneal macrophages were stimulated with LPS (0.5 μg/mL) for 24 h in presence or absence of POE (40 μM). […] The percentage of CD4^+OX40^+ T cells in the polarized Th17 cells was determined using flow cytometry; the results are shown in FIG. 3D. Stat3 mRNA expression in the polarized Th17 cells was quantified by real-time PCR and normalized to Gapdh mRNA; the results are shown relative to those of untreated Th17 cells in FIG. 3E.

peritoneal macrophages = assay: Cytokine secretion by LPS-stimulated peritoneal macrophages; format: cell-based, mice; details: 40 μM, LPS 0.5 μg/mL 24 h, compared to LPS alone
Experimental: as §1
The mRNAs and cytokines were quantified as follows. A first strand of cDNA was synthesized from total RNA by using the TaqMan reverse transcription kit. […] The relative expression of mRNAs was calculated by ΔΔCt method. For cytokines quantification in serum and cell culture supernatants, ELISA kits of IL-17a, IL-6, TNF-α (Invitrogen) were used following the manufacturer's instructions.
The anti-inflammatory activity of the Arid5a inhibitor POE was tested in vitro by measuring secretion of pro-inflammatory cytokines by macrophages and differentiated Th17 cells. […] The percentage of CD4^+OX40^+ T cells in the polarized Th17 cells was determined using flow cytometry; the results are shown in FIG. 3D. […]

Pocket X-mutant Arid5a = molecular target: T1, Pocket X-mutant Arid5a (Mus musculus, UniProt Q3U108, F56C/L84A/V134A/Y137A); assay: Luciferase assay on Pocket X-mutant Arid5a (Phe56, Leu84, Val134, Tyr137 substitutions); format: cell-based; details: 40 μM
T1 construct: Flag; expressed in transfected cells; host or cells: HEK293T
T1 sequence (Q3U108 1-590 F56C/L84A/V134A/Y137A): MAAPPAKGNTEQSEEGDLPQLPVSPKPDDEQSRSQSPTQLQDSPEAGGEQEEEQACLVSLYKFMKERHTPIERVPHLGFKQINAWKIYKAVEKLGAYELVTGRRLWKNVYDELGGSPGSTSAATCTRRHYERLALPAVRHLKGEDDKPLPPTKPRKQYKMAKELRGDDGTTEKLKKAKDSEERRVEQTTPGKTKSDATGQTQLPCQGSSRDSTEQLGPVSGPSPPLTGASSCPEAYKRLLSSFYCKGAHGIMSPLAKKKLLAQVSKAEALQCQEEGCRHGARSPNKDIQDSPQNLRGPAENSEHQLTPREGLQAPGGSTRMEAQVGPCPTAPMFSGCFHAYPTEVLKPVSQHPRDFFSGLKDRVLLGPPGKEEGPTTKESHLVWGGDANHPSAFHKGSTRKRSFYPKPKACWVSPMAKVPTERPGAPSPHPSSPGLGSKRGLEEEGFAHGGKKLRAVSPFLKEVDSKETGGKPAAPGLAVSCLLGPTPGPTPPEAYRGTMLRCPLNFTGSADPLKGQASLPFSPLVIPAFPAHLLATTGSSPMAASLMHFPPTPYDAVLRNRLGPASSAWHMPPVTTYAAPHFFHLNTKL
Text: Briefly, HEK293T cells were transfected with luciferase pGL-3 and empty pcDNA3.1 plasmids (Control), or pGL-3 plasmid encoding the 3′UTR of OX40, Il6 or Stat3, together with Arid5a-expressing pcDNA3.1 plasmid. Substitution mutations were introduced to the wild-type (WT) Arid5a at Phe56, Leu84, Val134 and Tyr137. Single point mutations were used to substitute Phe56 (TTC) with Cys (TGC) and Val134 (GTC) with Ala (GCC). Sequential point mutations were used to substitute Leu84 (CTG) with Ala (GCG) and Tyr137 (TAT) with Ala (GCT). Luciferase activity from cell lysates is shown relative to Control in FIGS. 2A-2C.

SMILES: O=C(CSc1nnc(-c2ccncc2)o1)c1ccccc1 [POE, 1-Phenyl-2-(5-pyridin-4-yl-[1,3,4]oxadiazol-2-ylsulfanyl)-ethanone]
- Level of IL-17 in cell culture supernatant of polarized Th17 cells ([1]; compared to untreated Th17 cells, FIG. 3C): reduces the level of IL-17
- Frequency of CD4+OX40+ T cells in polarized Th17 cells ([1]; flow cytometry, FIG. 3D): reduces the frequency of CD4^+OX40^+ T cells
- Expression of Stat3 mRNA in polarized Th17 cells ([1]; real-time PCR normalized to Gapdh, FIG. 3E): reduces the expression of Stat3 mRNA
- Level of IL-6 in cell culture supernatant (peritoneal macrophages; FIG. 3A): reduces the level of IL-6
- Level of TNF-α in cell culture supernatant (peritoneal macrophages; FIG. 3B): does not affect the level of TNF-α
- Inhibitory effect on stabilizing function of mutant Arid5a on OX40 3′UTR (Pocket X-mutant Arid5a; mutations at Phe56, Leu84, Val134, Tyr137, FIG. 2A): abolish the inhibitory effects of POE
- Inhibitory effect on stabilizing function of mutant Arid5a on Il6 3′UTR (Pocket X-mutant Arid5a; mutations at Phe56, Leu84, Val134, Tyr137, FIG. 2B): abolish the inhibitory effects of POE
- Inhibitory effect on stabilizing function of mutant Arid5a on Stat3 3′UTR (Pocket X-mutant Arid5a; mutations at Phe56, Leu84, Val134, Tyr137, FIG. 2C): abolish the inhibitory effects of POE
